The text below walks through data of patent EP2604265A1, “P2x7 antagonists as frontline or adjunctive treatment against status epilepticus” (Royal College of Surgeons in Ireland (RCSI), priority 2011, dated 2013).

Test [1] deals with Adult male C57BL/6 mice. As to the kind of experiment: Intra-amygdala KA-induced SE in mice, EEG, drug i.c.v. immediately prior to KA. Format: in vivo. Conditions: i.c.v. co-injection immediately prior to intra-amygdala KA; vs vehicle (antibody vs control IgG); lorazepam at 40 min. How it is done: (§1) Adult male C57BL/6 mice (20-25 g) were obtained from Harlan UK (Blackthorn, UK). Mice were first anesthetized using isoflurane (3-5%) and maintained normothermic by means of a feedback-controlled heat blanket (Harvard Apparatus Ltd, Kent, UK). Mice were next placed in a stereotaxic frame and three partial craniectomies performed to affix cortical skull-mounted EEG electrodes (Bilaney Consultants Ltd, Sevenoaks, UK). EEG was recorded using a Grass Comet XL digital EEG (Medivent Ltd, Lucan, Ireland). A guide cannula was affixed (coordinates from Bregma: AP = 0.94; L = 2.85 mm) and the assembly fixed in place with dental cement. Anesthesia was then discontinued and freely moving mice were placed inside a clear perspex recording chamber. EEG recordings were commenced and after establishing baseline EEG for a few minutes, an injection cannula was lowered through the guide cannula for injection of kainic acid (KA) (Ocean Produce International, Nova Scotia, Canada) into the basolateral amygdala nucleus (0.3 µg in 0.2 µl phosphate-buffered saline). Non-seizure control mice underwent the same surgical procedure but received 0.2 µl intra-amygdala vehicle. Mice were killed at different time-points (1, 4, 8 or 24 h) later and perfused with saline to remove intravascular blood components. Brains were either flash-frozen whole in 2-methylbutane at 30°C or perfused with 4% PFA for histopathology, or dissected on ice to obtain whole hippocampus or microdissected to obtain the different hippocampal subfields (CA1, DG and CA3).
Digitized EEG recordings were analyzed off-line using manual assessment and automated software. […] The duration of high-frequency (>5 Hz) high-amplitude (>2× baseline) polyspike discharges of ≥5 s duration (HAHFDs) was counted by a reviewer blind to treatment. Further EEG analysis was performed by uploading EEG into Labchart7 software (ADInstruments) to calculate the power spectral density (total power, a measure of the input signal's power (amplitude) over frequency) EEG spectrogram (spectral power against frequency and time).
All the following drugs were purchased from Sigma-Aldrich Ireland (Arklow, Ireland) and delivered by intracerebroventricular (i.c.v.) microinjection in 2 µl volume unless otherwise specified: Adenosine 5'-triphosphate (ATP) at 100 µM, Uridine-5'-triphosphate (UTP) at 100 µM, Uridine-5'-diphosphate (UDP) at 100 µM, 2-chloro-N6-cyclopentyladenosine (CCPA) 300 nM, Pyridoxal-phosphate-6-azophenyl-2,4-disulfonate (PPADS) at 50 µM, α,β- methylene- adenosine-5-triphosphate (α,β-meATP) at 0.1 nmol, 3-O-(4-benzoyl)benzyl-ATP (Bz-ATP) at 300 µM, Brillant Blue G (BBG) at 30 nM.
Lorazepam (Ativan®, Wyeth, Taplow, U.K.) (6 mg/kg) was administered intraperitoneally (i.p.) at 40 or 60 min after KA.
Next, a model of focal-onset SE was used to evaluate the contributions of ATP-gated receptors in vivo. Mice received intra-amygdala microinjection of KA to induce SE (Fig. 2C). […] The electroencephalogram (EEG) was recorded by using cranial electrodes (lower part of Fig. 2C). Seizures were curtailed after 40 min by the injection of lorazepam to minimize morbidity and mortality.

Test [2] has as its system Adult male C57BL/6 mice. In words: Histopathology of ipsilateral hippocampal CA3 after SE (FJB and NeuN counts). Format: in vivo. The conditions noted are these: 24 h after SE, vs vehicle; for Counts of surviving CA3 neurons (NeuN) / FJB-positive cells within the CA3 subfield (neuronal death): drug given prior to SE. How it is done:
as §1
Flash-frozen brains in 2-methylbutane were sectioned at -20°C on a Leica cryostat and 12 µm sections collected at the level of dorsal hippocampus (-1.8 mm and - 2.9 mm from Bregma according to a mouse stereotaxic atlas (Paxinos and Franklin, 2001). Neuronal death was assessed using Fluoro-Jade B (FJB) staining, as previously described (Engel et al., 2010; Murphy et al., 2010). Briefly, sections were air-dried and post-fixed in formalin followed by hydrating through graded alcohols. Sections were then rinsed in distilled water and transferred to 0.006% potassium permanganate solution for 15 min. Sections were rinsed again and transferred to a 0.001% FJB solution according to manufacturer's recommendations (Chemicon Europe Ltd, Chandlers Ford, UK). After staining, sections were mounted in DPX (Sigma-Aldrich). For NeuN immunohistochemistry, sections were fixed and permeabilized, blocked in goat serum and incubated overnight with anti-NeuN antibodies (Millipore Ireland B.V., Tullagreen, Ireland) followed by incubation with goat anti-rabbit IgG antibodies coupled to AlexaFluor 568 (BioSciences Limited, Dun Laoghaire, Ireland). Sections were examined using a Nikon 2000s epifluorescence microscope under Ex/Em wavelengths of 472/520 nm (green) and 540 to 580/600 to 660 nm (red) and images captured using a Hamamatsu Orca 285 camera. Cell counts were the average of two adjacent sections for the CA3 subfield under 40x lens magnification by an observer blinded to treatment.

The test system of another test is microglia. As to the kind of experiment: Iba-1 immunostaining, activated microglia counts in CA3 after SE. It counts as in vivo, mice. Conditions: CA3, 24 h after SE; vs vehicle. The procedure:
as §1, with “Brains were either flash-frozen whole in 2-methylbutane at 30°C or perfused with 4% PFA for histopathology, or dissected on ice to obtain whole hippocampus or microdissected to obtain the different hippocampal subfields (CA1, DG and CA3).” left out

`Cl.Clc1cccc(-c2nnnn2Cc2cccnc2)c1Cl` [A-438079, 3-[[5-(2,3-Dichlorophenyl)-1H-tetrazol-1-yl]methyl]pyridine hydrochloride]: in the test with Adult male C57BL/6 mice [1], the “seizure time during SE (duration of HAHFDs)” value is listed as “significantly reduced seizure time”. In addition, in the test with Adult male C57BL/6 mice [2], the “Counts of surviving CA3 neurons (NeuN)” value is “significantly higher” and the “FJB-positive cells within the CA3 subfield (neuronal death)” value is recorded as “protect the hippocampus against SE-induced neuronal death”. In the test on Adult male C57BL/6 mice [2] (injected 15 min after KA), the “FJB-positive cells in CA3” value was “significantly fewer” and the “NeuN-positive cells in CA3” value was “significantly more”. The “Reactive microglia (Iba-1)” value with microglia was “significantly reduced”.

Regarding `CCOc1ccc(Nc2ccc(C(=C3C=CC(=[N+](CC)Cc4cccc(S(=O)(=O)[O-])c4)C=C3C)c3ccc(N(CC)Cc4cccc(S(=O)(=O)O)c4)cc3C)cc2)cc1` [BBG, Brilliant Blue G], in the test on Adult male C57BL/6 mice [1], the “seizure time during SE (duration of HAHFDs)” value is “significantly reduced seizure time”. In addition, in the test on Adult male C57BL/6 mice [2], the “Counts of surviving CA3 neurons (NeuN)” value was “significantly higher” and the “FJB-positive cells within the CA3 subfield (neuronal death)” value is “significantly less damage”. The “Reactive microglia (Iba-1)” value in the test on microglia was “significantly reduced”.
